The nature of data set [1]: Abstinence syndrome / physical dependency on withdrawal after repeated administration (body weight decrease). The arrangement: key to Abstinence syndrome: +++: severe decrease (about 5% decrease); ++: moderate decrease; +: mild decrease; -: no decrease. It is filed as in vivo, male rats of Wistar strain. As to conditions: rats; for physical dependency: orally or subcutaneously everyday for over one month; for Abstinence syndrome: subcutaneous twice a day, body weight decrease on the day after drug withdrawal. How it is done: (§1) On account of this addiction liability, these analgesics are severely restricted in a therapeutic use.
Note: Groups of male rats of Wistar strain (body weight, 150 g), each group consisting of 20 male rats, were subcutaneously given the test compound twice a day for 4 consecutive weeks. On the next day after drug withdrawal, the body weight was measured. The symbols have the following meanings: +++, severe decrease (about 5% decrease); ++, moderate decrease; +, mild decrease; -, no decrease.

Data set [2] can be described thus: Subcutaneous writhing test (acetic acid). It is filed as in vivo, mice. The following applies: for ED50: Mus musculus, sc, mice, subcutaneous 20 minutes before acetic acid, Litchfeld-Wilcoxon's method; for analgesic activity: in words; for analgesic action compared with pentazocine: subcutaneous writhing test, versus pentazocine. How it is done:
[…]. Note: The test was based on the specific anatagonism of the test compound to the typical syndrome produced by intraperitoneal injection of 0.6% aqueous acetic acid. The syndrome was characterized by intermittent contractions of the abdomen, twisting and turning of the trunk and extension of the hind legs. A group of 5 mice was used for each dose level. The test compound was administered subcutaneously 20 minutes before the injection of acetic acid. […] The ED50 value was calculated according to the Litchfeld-Wilcoxon's method.
(In general: In writhing tests, fewer writhes than in controls are read as antinociception.)

A short description of data set [3]: Addiction / drug dependency in (long term) animal tests. It is filed as in vivo.
From the text: Hitherto, many benzomorphan derivatives (e.g., phenazocine, pentazocine) have been developed as analgesic drugs but most of them have addiction and produce narcotic symptoms at their usual dosages.
as §1

The conditions of data set [4]: cited from earlier work.

This is an account of results in US3966939A, “Novel 2-substituted 6,7-benzomorphan derivatives and salts thereof in analgesic compositions” (Sumitomo Chemical Company, Limited, priority 1972, dated 1976).

With `CSCCN1CCC2(C)c3cc(O)ccc3CC1C2C` (stereo not drawn) [2'-Hydroxy-2-(β-methylthioethyl)-5,9-dimethyl-6,7-benzomorphan], the physical dependency entry in data set [1] is “did not produce any physical dependency”. For the same molecule, the Abstinence syndrome result in data set [1] (40 mg/kg/day for 4 weeks) is listed as “-”. For the same molecule, in data set [2], the median effective dose (ED50) (as a rule, the dose at which the effect has come halfway, by size or by number of responders) was 3.1 mg/kg; the analgesic activity result is listed as “strong analgesic activity”; the “analgesic action compared with pentazocine” value is given as “much more potent analgesic action than pentazocine”. For the same molecule, in data set [3], the “addiction in long term animal tests” value is “do not show addiction”.
As for `CCC12CCN(CCSC)C(Cc3ccc(O)cc31)C2` (stereo not drawn) [2'-Hydroxy-2-(β-methylthioethyl)-5-ethyl-6,7-benzomorphan], in data set [1], the physical dependency result is recorded as “did not produce any physical dependency”. In addition, in data set [1] (20 mg/kg/day for 4 weeks), the Abstinence syndrome entry is recorded as “-”. In data set [2], the ED50 was 0.34 mg/kg, the analgesic activity result is listed as “strong analgesic activity” and the “analgesic action compared with pentazocine” value is reported as “much more potent analgesic action than pentazocine”. Besides, the “addiction in long term animal tests” value in data set [3] is reported as “do not show addiction”.
Turning to `CC1C2Cc3ccc(O)cc3C1(C)CCN2C` (stereo not drawn) [2'-Hydroxy-2,5,9-trimethyl-6,7-benzomorphan], the “analgesic activity (known)” value in data set [4] (U.S. Pat. No. 3,138,603) is “potent analgesic activity”. Moreover, the “addiction liability (known)” value in data set [4] (prior benzomorphan derivatives) was “show an addition liability”. The Abstinence syndrome result in data set [1] (20 mg/kg/day for 4 weeks) is reported as “++”.
Take `CC(C)SCCN1CCC2(C)c3cc(O)ccc3CC1C2C` (stereo not drawn) [2'-Hydroxy-2-(β-isopropylthioethyl)-5,9-dimethyl-6,7-benzomorphan]: in data set [2], the ED50 was determined as 3.6 mg/kg, the analgesic activity entry is given as “strong analgesic activity” and the “analgesic action compared with pentazocine” value is listed as “much more potent analgesic action than pentazocine”.
For the molecule `CCC1C2Cc3ccc(O)cc3C1(CC)CCN2CCSC` (stereo not drawn) [2'-Hydroxy-2-(β-methylthioethyl)-5,9-diethyl-6,7-benzomorphan], in data set [1], the physical dependency entry was “did not produce any physical dependency”. Further, in data set [1] (40 mg/kg/day for 4 weeks), the Abstinence syndrome entry is on record as “-”. The “addiction in long term animal tests” value in data set [3] is “do not show addiction”.
